The compounds below were run against T1, human OX2 receptor (Homo sapiens, UniProt O43614) (assay: Measurement of orexin type 2 receptor agonist activity (calcium fluorescence, Fluo-4, FDSS)). Settings: 3 uM test compound; CHO cells expressing human OX2 receptor; DMSO = 0%, 10 nM orexin A (human) = 100%.
T1 construct: expressed in transfected cells
T1 sequence (O43614 1-444): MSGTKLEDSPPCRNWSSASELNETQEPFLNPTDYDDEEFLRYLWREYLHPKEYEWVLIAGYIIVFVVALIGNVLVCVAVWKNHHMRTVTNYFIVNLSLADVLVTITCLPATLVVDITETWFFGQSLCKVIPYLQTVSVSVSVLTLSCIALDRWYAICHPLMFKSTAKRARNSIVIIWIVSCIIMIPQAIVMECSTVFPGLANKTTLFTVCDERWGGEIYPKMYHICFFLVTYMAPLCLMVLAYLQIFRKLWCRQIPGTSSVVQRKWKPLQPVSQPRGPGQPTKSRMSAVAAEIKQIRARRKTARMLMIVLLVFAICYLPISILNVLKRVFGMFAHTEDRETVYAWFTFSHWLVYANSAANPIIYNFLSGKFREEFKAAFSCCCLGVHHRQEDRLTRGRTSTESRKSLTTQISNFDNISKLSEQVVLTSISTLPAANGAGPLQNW
Format: cell-based
Outline: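 Agonist activity (%) was normalised to the response to 10 nM final human orexin A (100%) and to the DMSO vehicle (0%). The response was measured as the Fluo-4 calcium signal, read kinetically over 1 min 40 s after compound addition to Fluo-4/probenecid-loaded stable CHO-K1 clones expressing human OX2 (aa 1-444).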

Row | Structure (SMILES) | OX2R agonist activity (3 uM, %)
1 | CS(=O)(=O)N[C@@H]1CN2C(=O)N(c3noc4cccc(-c5cccs5)c34)CC[C@@H]2C1(F)F [Example 278, N-{(4aR,6R)-5,5-difluoro-1-oxo-2-[4-(thiophen-2-yl)-1,2-benzoxazol-3-yl]octahydropyrrolo[1,2-c]pyrimidin-6-yl}methanesulfonamide] | 109%
2 | O=C1N(c2noc3ccc(F)c(-c4c(F)cccc4F)c23)CC[C@H]2N1C[C@@H](NS(=O)(=O)C1CC1)C2(F)F [Example 280, N-{(4aR,6R)-2-[4-(2,6-difluorophenyl)-5-fluoro-1,2-benzoxazol-3-yl]-5,5-difluoro-1-oxooctahydropyrrolo[1,2-c]pyrimidin-6-yl}cyclopropanesulfonamide] | 101%
3 | O=C1N(c2noc3cc(F)cc(-c4c(F)cc(F)cc4F)c23)CC[C@H]2N1C[C@@H](NS(=O)(=O)C1CC1)C2(F)F [Example 281, N-{(4aR,6R)-5,5-difluoro-2-[6-fluoro-4-(2,4,6-trifluorophenyl)-1,2-benzoxazol-3-yl]-1-oxooctahydropyrrolo[1,2-c]pyrimidin-6-yl}cyclopropanesulfonamide] | 107%
4 | O=C1N(c2noc3cccc(-c4c(F)cccc4F)c23)CC[C@H]2N1C[C@@H](NS(=O)(=O)CF)C2(F)F [Example 284, N-{(4aR,6R)-2-[4-(2,6-difluorophenyl)-1,2-benzoxazol-3-yl]-5,5-difluoro-1-oxooctahydropyrrolo[1,2-c]pyrimidin-6-yl}-1-fluoromethanesulfonamide] | 109%
5 | O=C1N(c2noc3cccc(-c4c(F)cccc4F)c23)CC[C@H]2N1C[C@@H](NS(=O)(=O)C1CC1)C2(F)F [Example 285, N-{(4aR,6R)-2-[4-(2,6-difluorophenyl)-1,2-benzoxazol-3-yl]-5,5-difluoro-1-oxooctahydropyrrolo[1,2-c]pyrimidin-6-yl}cyclopropanesulfonamide] | 105%
6 | CS(=O)(=O)N[C@@H]1CN2C(=O)N(c3noc4cccc(-c5ccc(F)cc5F)c34)CC[C@@H]2C1(F)F [Example 290, N-{(4aR,6R)-2-[4-(2,4-difluorophenyl)-1,2-benzoxazol-3-yl]-5,5-difluoro-1-oxooctahydropyrrolo[1,2-c]pyrimidin-6-yl}methanesulfonamide] | 106%
7 | CS(=O)(=O)N[C@@H]1CN2C(=O)N(c3noc4cccc(-c5ccccc5Cl)c34)CC[C@@H]2C1(F)F [Example 291, N-{(4aR,6R)-2-[4-(2-chlorophenyl)-1,2-benzoxazol-3-yl]-5,5-difluoro-1-oxooctahydropyrrolo[1,2-c]pyrimidin-6-yl}methanesulfonamide] | 106%
8 | CS(=O)(=O)N[C@@H]1CN2C(=O)N(c3noc4cccc(-c5cc(F)ccc5F)c34)CC[C@@H]2C1(F)F [Example 292, N-{(4aR,6R)-2-[4-(2,5-difluorophenyl)-1,2-benzoxazol-3-yl]-5,5-difluoro-1-oxooctahydropyrrolo[1,2-c]pyrimidin-6-yl}methanesulfonamide] | 106%
9 | COc1cc(-c2c(F)cc(F)cc2F)c2c(N3CC[C@H]4N(C[C@@H](NS(C)(=O)=O)C4(F)F)C3=O)noc2n1 [Example 294, N-{(4aR,6R)-5,5-difluoro-2-[6-methoxy-4-(2,4,6-trifluorophenyl)[1,2]oxazolo[5,4-b]pyridin-3-yl]-1-oxooctahydropyrrolo[1,2-c]pyrimidin-6-yl}methanesulfonamide] | 104%
10 | CS(=O)(=O)N[C@@H]1CN2C(=O)N(c3noc4cc(F)cc(-c5ncc(F)cc5F)c34)CC[C@@H]2C1(F)F [Example 295, N-{(4aR,6R)-2-[4-(3,5-difluoropyridin-2-yl)-6-fluoro-1,2-benzoxazol-3-yl]-5,5-difluoro-1-oxooctahydropyrrolo[1,2-c]pyrimidin-6-yl}methanesulfonamide] | 113%
11 | CS(=O)(=O)N[C@@H]1CN2C(=O)N(c3noc4cc(OC(F)F)cc(-c5c(F)cc(F)cc5F)c34)CC[C@@H]2C1(F)F [Example 296, N-{(4aR,6R)-2-[6-(difluoromethoxy)-4-(2,4,6-trifluorophenyl)-1,2-benzoxazol-3-yl]-5,5-difluoro-1-oxooctahydropyrrolo[1,2-c]pyrimidin-6-yl}methanesulfonamide] | 102%
12 | O=C1N(c2noc3cc(F)c(F)c(-c4c(F)cc(F)cc4F)c23)CC[C@H]2N1C[C@@H](NS(=O)(=O)CF)C2(F)F [Example 297, N-{(4aR,6R)-2-[5,6-difluoro-4-(2,4,6-trifluorophenyl)-1,2-benzoxazol-3-yl]-5,5-difluoro-1-oxooctahydropyrrolo[1,2-c]pyrimidin-6-yl}-1-fluoromethanesulfonamide] | 107%
13 | CCS(=O)(=O)N[C@@H]1CN2C(=O)N(c3noc4cc(C(F)F)cc(-c5c(F)cc(F)cc5F)c34)C[C@@H]2C1(F)F [Example 298, N-{(6R,7aR)-2-[6-(difluoromethyl)-4-(2,4,6-trifluorophenyl)-1,2-benzoxazol-3-yl]-7,7-difluoro-3-oxohexahydro-1H-pyrrolo[1,2-c]imidazol-6-yl}ethanesulfonamide] | 105%
14 | CCOc1cc(-c2c(F)cccc2F)c2c(N3CC[C@H]4N(C[C@@H](NS(=O)(=O)C5CC5)C4(F)F)C3=O)noc2c1 [Example 300, N-{(4aR,6R)-2-[4-(2,6-difluorophenyl)-6-ethoxy-1,2-benzoxazol-3-yl]-5,5-difluoro-1-oxooctahydropyrrolo[1,2-c]pyrimidin-6-yl}cyclopropanesulfonamide] | 105%

Further lines, results first:

Row | OX2R agonist activity (3 uM, %) | Structure (SMILES)
15 | 104% | O=C1N(c2noc3cc(F)cc(-c4c(F)cccc4F)c23)CC[C@H]2N1C[C@@H](NS(=O)(=O)CF)C2(F)F [Example 279, N-{(4aR,6R)-2-[4-(2,6-difluorophenyl)-6-fluoro-1,2-benzoxazol-3-yl]-5,5-difluoro-1-oxooctahydropyrrolo[1,2-c]pyrimidin-6-yl}-1-fluoromethanesulfonamide]
16 | 107% | O=c1n(-c2noc3cc(F)cc(-c4c(F)cccc4F)c23)cc2n1C[C@@H](NS(=O)(=O)CF)C2(F)F [Example 283, N-{(6R)-2-[4-(2,6-difluorophenyl)-6-fluoro-1,2-benzoxazol-3-yl]-7,7-difluoro-3-oxo-2,5,6,7-tetrahydro-3H-pyrrolo[1,2-c]imidazol-6-yl}-1-fluoromethanesulfonamide]
17 | 105% | Cc1cc2onc(-n3cc4n(c3=O)C[C@@H](NS(=O)(=O)N(C)C)C4(F)F)c2c(-c2c(F)cccc2F)n1 [Example 286, N′-{(6R)-2-[4-(2,6-difluorophenyl)-6-methyl[1,2]oxazolo[4,5-c]pyridin-3-yl]-7,7-difluoro-3-oxo-2,5,6,7-tetrahydro-3H-pyrrolo[1,2-c]imidazol-6-yl}-N,N-dimethylsulfuric diamide]
18 | 101% | O=C1N(c2noc3cc(F)cc(-c4c(F)cccc4F)c23)C[C@H]2N1C[C@@H](NS(=O)(=O)CF)C2(F)F [Example 287, N-{(6R,7aR)-2-[4-(2,6-difluorophenyl)-6-fluoro-1,2-benzoxazol-3-yl]-7,7-difluoro-3-oxohexahydro-1H-pyrrolo[1,2-c]imidazol-6-yl}-1-fluoromethanesulfonamide]
19 | 101% | O=c1n(-c2noc3cc(F)cc(-c4c(F)cc(F)cc4F)c23)cc2n1C[C@@H](NS(=O)(=O)CF)C2(F)F [Example 288, N-{(6R)-7,7-difluoro-2-[6-fluoro-4-(2,4,6-trifluorophenyl)-1,2-benzoxazol-3-yl]-3-oxo-2,5,6,7-tetrahydro-3H-pyrrolo[1,2-c]imidazol-6-yl}-1-fluoromethanesulfonamide]
20 | 113% | O=c1n(-c2noc3ccc(F)c(-c4c(F)cc(F)cc4F)c23)cc2n1C[C@@H](NS(=O)(=O)CF)C2(F)F [Example 293, N-{(6R)-7,7-difluoro-2-[5-fluoro-4-(2,4,6-trifluorophenyl)-1,2-benzoxazol-3-yl]-3-oxo-2,5,6,7-tetrahydro-3H-pyrrolo[1,2-c]imidazol-6-yl}-1-fluoromethanesulfonamide]
21 | 104% | CCOc1cc(-c2c(F)cccc2F)c2c(N3CC[C@H]4N(C[C@@H](NS(=O)(=O)CC)C4(F)F)C3=O)noc2c1 [Example 299, N-{(4aR,6R)-2-[4-(2,6-difluorophenyl)-6-ethoxy-1,2-benzoxazol-3-yl]-5,5-difluoro-1-oxooctahydropyrrolo[1,2-c]pyrimidin-6-yl}ethanesulfonamide]
22 | 98% | CNS(=O)(=O)N[C@@H]1Cn2c(cn(-c3noc4ccc(F)c(-c5c(F)cc(F)cc5F)c34)c2=O)C1(F)F [Example 301, N-{(6R)-7,7-difluoro-2-[5-fluoro-4-(2,4,6-trifluorophenyl)-1,2-benzoxazol-3-yl]-3-oxo-2,5,6,7-tetrahydro-3H-pyrrolo[1,2-c]imidazol-6-yl}-N′-methylsulfuric diamide]
23 | 103% | CNS(=O)(=O)N[C@@H]1Cn2c(cn(-c3noc4cc(C)nc(-c5c(F)cccc5F)c34)c2=O)C1(F)F [Example 302, N-{(6R)-2-[4-(2,6-difluorophenyl)-6-methyl[1,2]oxazolo[4,5-c]pyridin-3-yl]-7,7-difluoro-3-oxo-2,5,6,7-tetrahydro-3H-pyrrolo[1,2-c]imidazol-6-yl}-N′-methylsulfuric diamide]

Source: patent publication US11987586B1 (TAKEDA PHARMACEUTICAL COMPANY LIMITED, priority 2022, dated 2024)
